Reference: patent US20060252918A1, “Use of hepatitis virus (hcv) p7 protein” (priority 2002, published 2006)

T1: HISp7 (HCV p7 with 6-HIS linker) (Hepatitis C virus genotype 1b, UniProt O92972)
T1 construct: the p7 protein of HCV is a 63 amino acid protein; GST (N, cleaved yes); made in house; host or cells: E. coli (pGEXHISp7 in pGEX4T1; DH5alpha is named for cloning)
T1 sequence (O92972 747-809 limits assumed): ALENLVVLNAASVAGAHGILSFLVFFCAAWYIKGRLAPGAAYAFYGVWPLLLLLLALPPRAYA

T2: HCV p7 (Hepatitis C virus genotype 1b, UniProt O92972)
T2 construct: the p7 protein of HCV is a 63 amino acid protein; expressed in transfected cells; host or cells: Vero cells (T7-driven expression, lipofectamine transfection)
T2 sequence (O92972 747-809 limits assumed): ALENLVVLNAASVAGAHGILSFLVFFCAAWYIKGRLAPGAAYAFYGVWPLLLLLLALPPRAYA

B1: hepatitis C virus (HCV) p7 protein (other)
chain: ALENLVVLNAASVAGAHGILSFLVFFCAAWYIKGRLAPGAAYAFYGVWPLLLLLLALPPRAYA
notes: mature; p7 expressed alone in hepatocyte-derived (HepG2) cells; The mammalian expression construct is not described; p7 is the 63-residue part of it

Assays:
[1] = molecular target: T1, HISp7 (HCV p7 with 6-HIS linker); type: biochemical, hepatitis C virus 1B (J4 isolate)
HCV p7 = molecular target: T2, HCV p7; type: cell-based
[2] = molecular target: the molecule itself; assay: self-association in HepG2 cell membranes

Molecule	inhibition of ion channel formation by HISp7 [1]	inhibition of HA transport facilitated by HCV p7 (HCV p7)	binding result [2]
NC12CC3CC(CC(C3)C1)C2 [amantadine]	inhibits ion channel formation by HISp7 FIG. 9) in the micromolar range	HA transport is inhibited	–
B1	–	–	binds
